The test system of the test is primary neonate myocytes (cardiomyocytes). The test is described as follows: Isolated heart cell (myocyte) preparation model of myocardial cell ischemia (Example 4). Format: cell-based, rat. Particulars: 37-111 micromolar. An excerpt:
Two-day old rat pups are removed from their mothers and placed in a sterile container. Pups are dipped quickly into 70% alcohol, then decapitated and the body is placed in an empty sterile tissue culture dish. An incision is made starting at the neck and progressing towards the belly, cutting through the sternum. The heart is removed and placed in a tissue culture dishes containing 1×HDS. The atria are trimmed, and the remaining ventricles are placed into a separate tissue culture dish containing 1×HDS, where they are sectioned into 3-4 pieces each. Ventricles are then transferred to a sterile 250 ml glass flask and the 1×HDS is removed. Twenty milliliters of pre-warmed collagenase solution are added to the ventricles, followed by incubation at 37° C. with shaking. After 30 minutes, the collagenase solution is removed and replaced with 20 ml fresh pre-warmed collagenase. Incubation is continued for an additional 30 minutes. At the end of the incubation, any tissue chunks are allowed to settle prior to removing the collagenase (containing the isolated cardiomyocytes) from the disrupted tissue pieces. The isolated myocytes are added to a 50 ml Falcon tube containing 2 ml Fetal Bovine Serum (FBS). […]
A small aliquot of the cell suspension is counted in a hemocytometer. […]

As to bromo-quercetin, the “preventing or reducing myocardial damage” value is “effective”.
